Reference: the supplement of paper PMC11368000

Legend:
Settings in all cases: exposure time: 90 min
[1] = test system: 1083 (donor line of iPSC-derived cardiomyocytes); assay: POD (EC10) for decrease in total cell number (cytotoxicity) vs vehicle; higher = less potent (higher point of departure)
Outline: (§1)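 After 14 days of culture in 384-well plates, human iPSC-derived cardiomyocytes from 16 donors received 0.1, 1, 10 or 100 µM (final, 0.5% DMSO) for 90 min at 37 °C. Nuclei were then counted per field in MetaXpress from 10× images after Hoechst 33342 staining, and a 10% decrease in vehicle-normalised counts served as the benchmark. For each donor, the cytotoxicity point of departure came from a hierarchical Bayesian Hill fit.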

[2] = test system: 20032 (donor line of iPSC-derived cardiomyocytes); assay: as above
Outline: as §1

[3] = test system: 1434 (donor line of iPSC-derived cardiomyocytes); assay: as above
Outline: as §1

[4] = test system: 30171 (donor line of iPSC-derived cardiomyocytes); assay: as above
Outline: as §1

[5] = test system: 1309 (donor line of iPSC-derived cardiomyocytes); assay: as above
Outline: as §1

[6] = test system: 1535 (donor line of iPSC-derived cardiomyocytes); assay: as above
Outline: as §1

[7] = test system: 1118 (donor line of iPSC-derived cardiomyocytes); assay: as above
Outline: as §1

[8] = test system: 1368 (donor line of iPSC-derived cardiomyocytes); assay: as above
Outline: as §1

[9] = test system: 1531 (donor line of iPSC-derived cardiomyocytes); assay: as above
Outline: as §1

[10] = test system: 1518 (donor line of iPSC-derived cardiomyocytes); assay: as above
Outline: as §1

[11] = test system: 11235 (donor line of iPSC-derived cardiomyocytes); assay: as above
Outline: as §1

[12] = test system: 1565 (donor line of iPSC-derived cardiomyocytes); assay: as above
Outline: as §1

[13] = test system: 1083; assay: POD (EC95) for loss of peak frequency (asystole) vs vehicle; higher = less potent (higher point of departure)
Experimental: (§2)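 Human iPSC-derived cardiomyocytes from 16 donors were exposed for 90 min at 37 °C to each PFAS at 0.1, 1, 10 and 100 µM in 0.5% DMSO, 384-well plates. Kinetic Ca2+ flux (FLIPR) and Hoechst nuclei counts were normalised to vehicle wells and fitted with a hierarchical Bayesian Hill model to give donor-specific PODs: EC05 for beat-rate increase or decrease and for decay-to-rise ratio increase (QT proxy), EC95 for peak-frequency loss (asystole), EC10 for total cell number loss. 0.03 µM is the lower bound.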

[14] = test system: 30171; assay: as above
Experimental: as §2

[15] = test system: 1309; assay: as above
Experimental: as §2

[16] = test system: 1118; assay: as above
Experimental: as §2

[17] = test system: 1368; assay: as above
Experimental: as §2

[18] = test system: 1518; assay: as above
Experimental: as §2

[19] = test system: 11235; assay: as above
Experimental: as §2

[20] = test system: 20084 (donor line of iPSC-derived cardiomyocytes); assay: as above
Experimental: as §2

SMILES	POD vs vehicle [1]	POD vs vehicle [2]	POD vs vehicle [3]	POD vs vehicle [4]	POD vs vehicle [5]	POD vs vehicle [6]	POD vs vehicle [7]	POD vs vehicle [8]	POD vs vehicle [9]	POD vs vehicle [10]	POD vs vehicle [11]	POD vs vehicle [12]	POD vs vehicle [13]	POD vs vehicle [14]	POD vs vehicle [15]	POD vs vehicle [16]	POD vs vehicle [17]	POD vs vehicle [18]	POD vs vehicle [19]	POD vs vehicle [20]
COC(=O)C(F)(F)C(F)(F)OC(F)(C(F)(F)F)C(F)(F)OC(F)=C(F)F (centres undefined) [Methyl_perfluoro(3-(1-ethenyloxypropan-2-yloxy)propanoate)]	> 100 µM	0.591 µM	> 100 µM	> 100 µM	> 100 µM	> 100 µM	> 100 µM	> 100 µM	> 100 µM	> 100 µM	> 100 µM	> 100 µM	> 100 µM	> 100 µM	> 100 µM	> 100 µM	> 100 µM	> 100 µM	> 100 µM	> 100 µM
O=C(O)C(F)(F)OC(F)(F)C(F)(F)OC(F)(F)F [Perfluoro-3,6-dioxaheptanoic_acid]	> 100 µM	> 100 µM	> 100 µM	> 100 µM	> 100 µM	> 100 µM	> 100 µM	> 100 µM	> 100 µM	> 100 µM	> 100 µM	> 100 µM	> 100 µM	> 100 µM	> 100 µM	> 100 µM	> 100 µM	> 100 µM	> 100 µM	> 100 µM
OCC(F)(F)OC(F)(F)C(F)(F)OC(F)(F)C(F)(F)OC(F)(F)F [Fluorinated_triethylene_glycol_monomethyl_ether]	> 100 µM	–	–	> 100 µM	65.6 µM	> 100 µM	> 100 µM	> 100 µM	–	–	> 100 µM	> 100 µM	> 100 µM	> 100 µM	> 100 µM	9.61 µM	> 100 µM	> 100 µM	> 100 µM	> 100 µM
OCC(O)CC(F)(F)C(F)(F)C(F)(F)C(F)(F)C(F)(F)C(F)(F)C(F)(F)C(F)(F)F (centres undefined) [1-(Perfluorofluorooctyl)propane-2,3-diol]	> 100 µM	> 100 µM	> 100 µM	> 100 µM	> 100 µM	> 100 µM	> 100 µM	> 100 µM	> 100 µM	> 100 µM	> 100 µM	> 100 µM	> 100 µM	> 100 µM	> 100 µM	1.19 µM	> 100 µM	> 100 µM	> 100 µM	> 100 µM
O=C(O)C(F)(F)OC(F)(F)C(F)(F)OC(F)(F)C(=O)O [Perfluoro-3,6-dioxaoctane-1,8-dioic_acid]	> 100 µM	> 100 µM	> 100 µM	> 100 µM	> 100 µM	> 100 µM	> 100 µM	> 100 µM	> 100 µM	> 100 µM	> 100 µM	> 100 µM	> 100 µM	> 100 µM	> 100 µM	> 100 µM	> 100 µM	> 100 µM	> 100 µM	> 100 µM
OCCC(F)(F)C(F)(F)C(F)(F)C(F)(F)F [4:2 Fluorotelomer alcohol]	> 100 µM	> 100 µM	> 100 µM	–	> 100 µM	> 100 µM	> 100 µM	> 100 µM	> 100 µM	> 100 µM	> 100 µM	> 100 µM	> 100 µM	> 100 µM	> 100 µM	89.1 µM	> 100 µM	> 100 µM	> 100 µM	> 100 µM
CN(CCO)S(=O)(=O)C(F)(F)C(F)(F)C(F)(F)C(F)(F)C(F)(F)C(F)(F)C(F)(F)C(F)(F)F [N-Methyl-N-(2-hydroxyethyl)perfluorooctanesulfonamide]	> 100 µM	> 100 µM	> 100 µM	> 100 µM	> 100 µM	> 100 µM	> 100 µM	> 100 µM	> 100 µM	> 100 µM	> 100 µM	> 100 µM	65 µM	69.7 µM	> 100 µM	–	> 100 µM	> 100 µM	> 100 µM	> 100 µM
OCC(F)(F)C(F)(F)C(F)(F)F [Heptafluorobutanol]	> 100 µM	> 100 µM	> 100 µM	> 100 µM	> 100 µM	> 100 µM	> 100 µM	> 100 µM	> 100 µM	> 100 µM	> 100 µM	> 100 µM	> 100 µM	> 100 µM	> 100 µM	> 100 µM	> 100 µM	> 100 µM	> 100 µM	> 100 µM
O=S(=O)(O)C(F)(F)C(F)(F)C(F)(F)C(F)(F)C(F)(F)C(F)(F)C(F)(F)C(F)(F)F [Perfluorooctanesulfonic_acid]	> 100 µM	> 100 µM	> 100 µM	> 100 µM	88.7 µM	> 100 µM	> 100 µM	> 100 µM	> 100 µM	> 100 µM	> 100 µM	> 100 µM	> 100 µM	> 100 µM	> 100 µM	> 100 µM	> 100 µM	> 100 µM	12.5 µM	> 100 µM
OCC(F)(F)C(F)(F)C(F)(F)C(F)F [1H,1H,5H-Perfluoropentanol]	> 100 µM	> 100 µM	> 100 µM	> 100 µM	> 100 µM	> 100 µM	> 100 µM	> 100 µM	> 100 µM	> 100 µM	> 100 µM	> 100 µM	> 100 µM	> 100 µM	> 100 µM	86.3 µM	> 100 µM	> 100 µM	> 100 µM	> 100 µM
O=C(O)C(F)(F)C(F)(F)C(F)(F)C(F)(F)C(F)(F)F [Perfluorohexanoic_acid]	> 100 µM	> 100 µM	> 100 µM	> 100 µM	> 100 µM	> 100 µM	> 100 µM	> 100 µM	> 100 µM	> 100 µM	> 100 µM	> 100 µM	> 100 µM	> 100 µM	> 100 µM	> 100 µM	> 100 µM	> 100 µM	> 100 µM	> 100 µM
O=C(O)C(F)(F)C(F)(F)C(F)(F)OC(F)(F)F [Perfluoro(4-methoxybutanoic)_acid]	> 100 µM	> 100 µM	> 100 µM	> 100 µM	> 100 µM	> 100 µM	> 100 µM	> 100 µM	> 100 µM	> 100 µM	> 100 µM	> 100 µM	> 100 µM	> 100 µM	> 100 µM	> 100 µM	> 100 µM	> 100 µM	> 100 µM	> 100 µM
O=S(=O)(OCC(F)(F)F)C(F)(F)C(F)(F)C(F)(F)C(F)(F)F [2,2,2-Trifluoroethyl_perfluorobutanesulfonate]	> 100 µM	> 100 µM	> 100 µM	> 100 µM	> 100 µM	> 100 µM	> 100 µM	> 100 µM	> 100 µM	> 100 µM	> 100 µM	> 100 µM	> 100 µM	> 100 µM	> 100 µM	> 100 µM	> 100 µM	> 100 µM	> 100 µM	> 100 µM
N=C(N)C(F)(F)C(F)(F)C(F)(F)C(F)(F)C(F)(F)C(F)(F)C(F)(F)F [Perfluorooctanamidine]	> 100 µM	> 100 µM	> 100 µM	> 100 µM	> 100 µM	> 100 µM	> 100 µM	> 100 µM	> 100 µM	> 100 µM	> 100 µM	> 100 µM	> 100 µM	> 100 µM	> 100 µM	25.6 µM	> 100 µM	> 100 µM	> 100 µM	> 100 µM
O=P(O)(O)CCC(F)(F)C(F)(F)C(F)(F)C(F)(F)C(F)(F)C(F)(F)C(F)(F)C(F)(F)F [((Perfluorooctyl)ethyl)phosphonic_acid]	> 100 µM	> 100 µM	> 100 µM	> 100 µM	> 100 µM	> 100 µM	> 100 µM	> 100 µM	> 100 µM	> 100 µM	> 100 µM	> 100 µM	> 100 µM	> 100 µM	> 100 µM	> 100 µM	> 100 µM	> 100 µM	> 100 µM	> 100 µM
O=S(=O)(O)CCC(F)(F)C(F)(F)C(F)(F)C(F)(F)C(F)(F)C(F)(F)C(F)(F)C(F)(F)F [8:2 Fluorotelomer sulfonic acid]	> 100 µM	> 100 µM	> 100 µM	> 100 µM	> 100 µM	> 100 µM	> 100 µM	> 100 µM	> 100 µM	> 100 µM	> 100 µM	> 100 µM	> 100 µM	> 100 µM	> 100 µM	> 100 µM	> 100 µM	> 100 µM	> 100 µM	> 100 µM
O=C(O)C(F)(F)C(F)(F)C(F)(F)C(F)(F)C(F)(F)C(F)(F)F [Perfluoroheptanoic_acid]	> 100 µM	> 100 µM	–	> 100 µM	> 100 µM	> 100 µM	> 100 µM	> 100 µM	> 100 µM	23.6 µM	> 100 µM	> 100 µM	> 100 µM	> 100 µM	> 100 µM	> 100 µM	> 100 µM	> 100 µM	> 100 µM	> 100 µM
O=C(O)C(F)(F)C(F)(F)C(F)(F)C(F)(F)C(=O)O [Octafluoroadipic_acid]	> 100 µM	–	23.3 µM	> 100 µM	> 100 µM	> 100 µM	> 100 µM	> 100 µM	> 100 µM	–	> 100 µM	–	> 100 µM	> 100 µM	> 100 µM	> 100 µM	> 100 µM	> 100 µM	> 100 µM	> 100 µM
OCC(F)(F)C(F)(F)C(F)(F)C(F)(F)C(F)(F)C(F)(F)F [6:1 Fluorotelomer alcohol]	> 100 µM	> 100 µM	13.1 µM	> 100 µM	98.6 µM	> 100 µM	1.53 µM	> 100 µM	> 100 µM	–	> 100 µM	> 100 µM	84.3 µM	80.8 µM	> 100 µM	1.75 µM	> 100 µM	> 100 µM	70.2 µM	> 100 µM
